The values below come from patent publication US20240352046A1, “ECTONUCLEOTIDE PYROPHOSPHATASE-PHOSPHODIESTERASE-1 (ENPP1) INHIBITORS AND USES THEREOF” (1cBio, Inc., priority 2020, published 2024).

This experiment deals with ENPP-1 (Ectonucleotide Pyrophosphatase/Phosphodiesterase 1) (Homo sapiens (Human), UniProt P22413). The experiment can be described thus: ENPP1 inhibition assay (AMP Glo, cGAMP substrate). The conditions noted are these: cGAMP 20 μM substrate, ENPP1 1 nM. The class given is biochemical. As for the experimental part: IC50 values of compounds against ENPP-1 (Ectonucleotide Pyrophosphatase/Phosphodiesterase 1) were determined at Integral BioSciences (India) using AMP Glo (Promega, Cat #V5011). Assay was performed in a 30 μL final volume in a white 96-well Half Area plate (Costar,Cat #3693). Dose response curve for the compounds were prepared in duplicates with starting conc. at 5 μM and a three-fold titration was performed. The reaction buffer consisted of 50 mM Tris (pH 8.0), 0.5 mM CaCl2), 1 μM ZnCl2, 250 mM NaCl and 0.1 mg/ml BSA. To the compound dilution, 15 μL of ENPP1 enzyme (R&D Systems; Cat #6136-EN-010) was added to each well (final conc. 1 nM) and the mix was pre-incubated for 15 min at RT. An equal volume (15 μL) containing cGAMP (Sigma, Cat #SML-1229) (final conc. 20 μM) was added to initiate the enzyme reaction and the reaction was incubated for 30 min at RT. The reaction was then stopped by heating at 90° C. for 3 minutes. 10 μl of reaction was then transferred to 384 well white, medium binding plates (Grenier, Cat #781075) to which 10 μl of AMP-Glo Reagent 1 was added and mixed well and incubated for 1 hour at 25° C. Following 60 min incubation, 20 μL of detection mixture was added to the enzyme reaction bringing the final volume to 40 μL. The reaction was further incubated for 60 min at RT after which the plates were read using BioTek Plate reader.
Sequence of ENPP-1 (Ectonucleotide Pyrophosphatase/Phosphodiesterase 1) (P22413 whole entry): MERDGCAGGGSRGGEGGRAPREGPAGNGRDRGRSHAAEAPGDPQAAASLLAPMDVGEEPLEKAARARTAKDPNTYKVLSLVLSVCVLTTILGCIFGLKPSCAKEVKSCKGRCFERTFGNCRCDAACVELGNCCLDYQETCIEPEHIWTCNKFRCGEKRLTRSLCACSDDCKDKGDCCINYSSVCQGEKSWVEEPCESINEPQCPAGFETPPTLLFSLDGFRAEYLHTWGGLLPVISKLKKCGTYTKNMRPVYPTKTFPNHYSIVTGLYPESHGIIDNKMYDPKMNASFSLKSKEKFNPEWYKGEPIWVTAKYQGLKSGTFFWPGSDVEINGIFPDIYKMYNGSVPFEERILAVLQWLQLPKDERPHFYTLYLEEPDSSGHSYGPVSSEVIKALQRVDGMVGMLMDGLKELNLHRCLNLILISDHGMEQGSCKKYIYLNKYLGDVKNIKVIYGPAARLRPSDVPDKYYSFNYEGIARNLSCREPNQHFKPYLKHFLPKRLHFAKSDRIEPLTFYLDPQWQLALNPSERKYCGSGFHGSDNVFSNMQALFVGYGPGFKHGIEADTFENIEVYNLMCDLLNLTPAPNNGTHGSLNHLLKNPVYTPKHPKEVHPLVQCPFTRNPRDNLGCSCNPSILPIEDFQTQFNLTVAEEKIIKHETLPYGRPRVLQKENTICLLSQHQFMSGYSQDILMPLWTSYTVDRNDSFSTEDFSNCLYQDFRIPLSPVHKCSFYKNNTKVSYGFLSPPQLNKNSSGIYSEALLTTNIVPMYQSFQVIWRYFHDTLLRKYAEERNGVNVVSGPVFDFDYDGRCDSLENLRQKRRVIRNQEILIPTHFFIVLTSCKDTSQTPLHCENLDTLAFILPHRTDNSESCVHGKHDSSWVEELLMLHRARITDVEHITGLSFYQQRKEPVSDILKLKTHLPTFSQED
Analysis was done using the standard curve by non-linear regression, variable slope inhibitor curve fits (Graph-Pad Prism) and IC50's of compounds were determined wherever possible.
The term IC50 denotes the concentration at which inhibition is half-maximal. Read a high IC50 as weaker potency. The molecule `Cc1cc(Cl)n2ncnc(N3CC4(CC(N(C[C@@H](O)C(F)(F)F)S(N)(=O)=O)C4)C3)c12` (stereo in doubt) [Compound 1.125, N-(2-(7-chloro-5-methylpyrrolo[2,1-f][1,2,4]triazin-4-yl)-2-azaspiro[3.3]heptan-6-yl)-N-(3,3,3-trifluoro-2-hydroxypropyl)sulfamide] returned an IC50 of 0.05 µM. `Cc1cc(Cl)n2ncnc(N3CC4(CC(N(C[C@H](O)C(F)(F)F)S(N)(=O)=O)C4)C3)c12` (stereo in doubt) [Compound 1.126, N-(2-(7-chloro-5-methylpyrrolo[2,1-f][1,2,4]triazin-4-yl)-2-azaspiro[3.3]heptan-6-yl)-N-(3,3,3-trifluoro-2-hydroxypropyl)sulfamide] yielded an IC50 of 0.023 µM.

In turn, `COc1cc2[nH]c(=O)nc(N3CC(CCNS(N)(=O)=O)C3)c2cc1OC` [Compound 1.2, (2-(1-(6,7-dimethoxy-2-oxo-1,2-dihydroquinazolin-4-yl)azetidin-3-yl)ethyl)amiosulfonamide] returned an IC50 greater than 5 µM. In the case of `COc1cc2c(N3CC(CCNS(N)(=O)=O)C3)ncnc2cn1` [Compound 1.3, (2-(1-(6-methoxypyrido[3,4-d]pyrimidin-4-yl)azetidin-3-yl)ethyl)aminisulfonamide] it was 0.22 µM; in that of `COc1cccc2c(N3CC(CCNS(N)(=O)=O)C3)ncnc12` [Compound 1.4, (2-(1-(8-methoxyquinazolin-4-yl)azetidin-3-yl)ethyl)aminosulfonamide], 0.072 µM; in that of `COc1cc2ncnc(N3CC(CCC(=O)O)C3)c2cc1OC` [Compound 1.5, 3-(1-(6,7-dimethoxyquinazolin-4-yl)azetidin-3-yl)propanoic acid], 0.16 µM.

For the molecule `COc1ccc2c(N3CC(CCNS(N)(=O)=O)C3)ncnc2c1` [Compound 1.8, (2-(1-(7-methoxyquinazolin-4-yl)azetidin-3-yl)ethyl)aminisulfonamide], the IC50 is 0.008 µM.

Regarding `COc1cccc2c(N3CC(CCNS(N)(=O)=O)C3)c(C#N)cnc12` [Compound 1.9, (2-(1-(3-cyano-8-methoxyquinolin-4-yl)azetidin-3-yl)ethyl)aminisulfonamide], the IC50 stood at 0.032 µM. In the case of `COc1cc2ncnc(N3CC(CNS(N)(=O)=O)C3)c2cc1OC` [Compound 1.10, N-((1-(6,7-dimethoxyquinazolin-4-yl)azetidin-3-yl)methyl) aminisulfonamide] it was 0.028 µM; in that of `COc1cc2nccc(N3CC(CCNS(N)(=O)=O)C3)c2cc1OC` [Compound 1.11, (2-(1-(6,7-dimethoxyquinolin-4-yl)azetidin-3-yl)ethyl)aminosulfonamide], 0.09 µM; in that of `COc1cc2ncc(C#N)c(N3CC(CCNS(N)(=O)=O)C3)c2cc1OC` [Compound 1.12, (2-(1-(3-cyano-6,7-dimethoxyquinolin-4-yl)azetidin-3-yl)ethyl)aminisulfonamide], 0.004 µM. In the case of `COc1ccc2c(N3CC(CCNS(N)(=O)=O)C3)c(C#N)cnc2c1` [Compound 1.13, 4-(3-(2-sulfamoylaminoethyl)azetidine-1-yl)-7-methoxyquinoline-3-carbonitrile] it was 0.011 µM; in that of `Cn1ccc2ncnc(N3CC(CCNS(N)(=O)=O)C3)c21` [Compound 1.14, 4-(3-(2-sulfamoylaminoethyl)azetidine-1-yl)-5-methyl-5H-pyrrolo[3,2-d]pyrimidine], 0.12 µM. The molecule `COc1cc2ncnc(N3CC4(CC(NS(N)(=O)=O)C4)C3)c2cc1OC` [Compound 1.15, 4-(6-sulfamoylamino-2-azaspiro[3.3]heptan-2-yl)-6,7-dimethoxyquinazoline] came in with an IC50 of 0.005 µM. In the case of `COc1ccc2ncnc(N3CC(CCNS(N)(=O)=O)C3)c2c1` [Compound 1.16, 4-(3-(2-sulfamoylaminoethyl)azetidine-1-yl)-6-methoxyquinazoline] it was 0.076 µM. In turn, `NS(=O)(=O)NCCC1CN(c2ncnc3cc4c(cc23)OCO4)C1` [Compound 1.18, 8-(3-(2-sulfamoylaminoethyl)azetidine-1-yl)-[1,3]dioxolo[4,5-g]quinazoline] gave an IC50 greater than 3 µM. In the case of `COc1cc2ncc(C#N)c(N3CC4(CC(NS(N)(=O)=O)C4)C3)c2cc1OC` [Compound 1.24, 4-(6-sulfamoylamino-2-azaspiro[3.3]heptan-2-yl)-6,7-dimethoxyquinoline-3-carbonitrile] it was 0.002 µM. As for `COc1cc2nc(C3CC3)nc(N3CC(CCNS(N)(=O)=O)C3)c2cc1OC` [Compound 1.25, 4-(3-(2-sulfamoylaminoethyl)azetidine-1-yl)-2-cyclopropyl-6,7-dimethoxyquinazoline], the figure is 0.66 µM; as for `COc1cc2ncnc(N3CC(CCP(=O)(O)O)C3)c2cc1OC` [Compound 1.29, 2-(1-(6,7-dimethoxyquinazolin-4-yl)azetidin-3-yl)ethylphosphonic acid], 0.892 µM; as for `COc1ccc2c(N3CC(CCNS(N)(=O)=O)C3)ncnc2c1OC` [Compound 1.31, 4-(3-(2-sulfamoylaminoethyl)azetidine-1-yl)-7,8-dimethoxyquinazoline], greater than 3 µM. In the case of `Cn1cnc2c(F)c3ncnc(N4CC(CCNS(N)(=O)=O)C4)c3cc21` [Compound 1.32, 8-(3-(2-sulfamoylaminoethyl)azetidine-1-yl)-4-fluoro-1-methyl-1H-imidazo[4,5-g]quinazoline] it was greater than 3 µM; in that of `COc1cc2nc(-c3ccc(F)cc3)nc(N3CC(CCNS(N)(=O)=O)C3)c2cc1OC` [Compound 1.33, 4-(3-(2-sulfamoylaminoethyl)azetidine-1-yl)-2-(4-fluorophenyl)-6,7-dimethoxyquinazoline], 0.248 µM.

Regarding `COc1ccc2c(N3CC(CCNS(N)(=O)=O)C3)nc(-c3ccccc3)nc2c1` [Compound 1.34, 4-(3-(2-sulfamoylaminoethyl)azetidine-1-yl)-7-methoxy-2-phenylquinazoline], the IC50 was greater than 3 µM.

Turning to `COc1cc2nc(-c3ccn(C)n3)nc(N3CC(CCNS(N)(=O)=O)C3)c2cc1OC` [Compound 1.36, 6,7-dimethoxy-2-(1-methylpyrazol-3-yl)-4-[3-[2-(sulfamoylamino)ethyl]azetidin-1-yl]quinazoline], the IC50 is 0.464 µM. As for `CCc1nc(N2CC(CCNS(N)(=O)=O)C2)c2ccc(OC)cc2n1` [Compound 1.37, 2-ethyl-7-methoxy-4-[3-[2-(sulfamoylamino)ethyl]azetidin-1-yl]quinazoline], the figure is greater than 3 µM; as for `COc1cc(F)cc2c(N3CC(CCNS(N)(=O)=O)C3)ncnc12` [Compound 1.38], greater than 3 µM; as for `COc1cc2ncnc(N3CC(CCNS(N)(=O)=O)C3)c2cc1Br` [Compound 1.41, 4-(3-(2-sulfamoylaminoethyl)azetidine-1-yl)-6-bromo-7-methoxyquinazoline], 0.737 µM. As for `COc1ccc2c(N3CC(CCNS(N)(=O)=O)C3)nc(-c3cccnc3)nc2c1` [Compound 1.44, 4-(3-(2-sulfamoylaminoethyl)azetidine-1-yl)-7-methoxy-2-(pyridin-3-yl)quinazoline], the figure is greater than 3 µM. In the case of `COc1ccc2c(N3CC(CCNS(N)(=O)=O)C3)nc(C34CC5CC(CC(C5)C3)C4)nc2c1` [Compound 1.45, 2-(1-adamantyl)-7-methoxy-4-[3-[2-(sulfamoylamino)ethyl]azetidin-1-yl]quinazoline] it was greater than 3 µM.
